The source of these data is patent publication US20140243416A1, “Topical Antiandrogen Therapy for the Treatment of Becker's Nevus” (priority 2013, published 2014).

For data set [1] the following is noted: topical application; cited from earlier work.
Data set [2] has as its system Becker's nevus. In words: Topical flutamide applied to a Becker's nevus (Example 1, single patient). In kind it is in vivo, person. Particulars: topical 4% solution, twice daily. The text has this:
FIG. 1a (left) depicts a person with a Becker's nevus before the antiandrogen treatment as described in example 1. FIG. 1b (right) depicts a person after treatment with a topical antiandrogen, specifically topical flutamide. […] A topical 4% solution of flutamide was applied twice daily to a Becker's nevus. […] (FIG. 1)

For the compound `CC(C)C(=O)Nc1ccc([N+](=O)[O-])c(C(F)(F)F)c1` [flutamide, methyl-N-[4-nitro-3-(trifluoromethyl)phenyl]-propanamide], the “absorption into the skin and systemic absorption” value in data set [1] is listed as “systemic absorption is measurable”. Moreover, the “cutaneous or systemic adverse effects” value in data set [2] is on record as “No cutaneous or systemic adverse effects”. The “pigmentary change in the normal skin surrounding the Becker's nevus” value in data set [2] (during treatment) is given as “no pigmentary change”. Further, the menstrual irregularities entry in data set [2] (patient-reported) is “denied any menstrual irregularities”.
